Results taken from patent publication US20100035943A1, “Oxa-and thiadiazoles and their use as metalloproteinase inhibitors” (VERNALIS (OXFORD) LTD, priority 2002, published 2010).

Experiments:
collagenase (MMP1) = target: T1, collagenase (MMP1) (Homo sapiens, UniProt P03956); assay: MMP1 enzyme inhibition assay (fluorogenic peptide substrate McaPLGLDpaAR); type: biochemical; settings: protocol as for MMP9 assay
T1 sequence (P03956 100-469): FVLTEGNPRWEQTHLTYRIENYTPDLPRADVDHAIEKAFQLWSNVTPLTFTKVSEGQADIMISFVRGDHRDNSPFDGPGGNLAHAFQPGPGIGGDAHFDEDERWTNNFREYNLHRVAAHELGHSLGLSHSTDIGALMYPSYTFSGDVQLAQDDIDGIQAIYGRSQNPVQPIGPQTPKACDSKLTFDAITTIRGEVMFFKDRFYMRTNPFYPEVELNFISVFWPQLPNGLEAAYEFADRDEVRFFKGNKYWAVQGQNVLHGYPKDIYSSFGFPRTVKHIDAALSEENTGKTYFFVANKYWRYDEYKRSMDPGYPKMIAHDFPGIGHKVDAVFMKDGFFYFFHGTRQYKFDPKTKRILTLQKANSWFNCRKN

[1] = test system: CCl4-induced liver fibrosis; assay: CCl4-induced liver fibrosis model; type: in vivo, Male Sprague-Dawley rats; settings: rat, CCl4 i.p.
Description: Carbon tetrachloride (CCl4) induces liver fibrosis when administered intraperitoneally (Bulbena O, Culat J, Bravo M L., Inflammation 1997 October; 21(5):475-88). Compounds of the invention can be evaluated for their ability to prevent the CCl4-induced formation of fibrotic tissue. Male Sprague-Dawley rats, 7 weeks old, weight approx. 300 g from Charles River/Iffa-Crédo, St-Germain/l'Arbresle, France. The study involved the following groups of 8 animals each, as indicated below. Group 1: “Sham” animals received CCl4 vehicle (i.p.) and once daily, the vehicle of test substance (s.c.) Group 2: Positive control group received CCl4 (i.p.), and once daily, the vehicle of the test substance (s.c.) Group 3: Experimental group received CCl4 (i.p.), and once daily, 2 mg/kg s.c. of the compound of Example 13. Group 4: Experimental group received CCl4 (i.p.), and once daily, 10 mg/kg s.c. of the compound of Example 13. Group 5: Experimental group received CCl4 (i.p.) and once daily, 20 mg/kg s.c. of the compound of Example 13. CCl4 (Prolabo) in olive oil was administered every 3 days for three weeks by intraperitoneal injection (0,25 ml CCl4/kg body weight, diluted in oil 1:1 vol:vol for a total volume of 0.5 ml/kg). Animals were weighed daily. If body weight decreased by more than 10% of the initial weight, the animal was excluded from the study. Vehicles and compound were used as follows: • CCl4 was administered in olive oil (prolabo) at a 1:1 dilution; • The compound of Example 13 was suspended in 0.25% Tween-80 and 0.25% carboxymethylcellulose in sterile 0.9% NaCl. The solution was kept at 4° C. throughout the experiment and used each day to prepare the suspensions. The compound of Example 13 was administered daily by subcutaneous (s.c.) injection at a volume of administration of 5 ml/kg. Groups 1 and 2 were dosed s.c. with 5 ml/kg of vehicle. Freshly prepared solutions were used on each day of the experiment. […] Plasma aspartate amino transferase (ASAT) and alanine amino transferase (ALAT) levels were measured in order to assess liver necrosis. […]

92 kDa gelatinase (MMP9) = 92 kDa gelatinase (MMP9) (Homo sapiens, UniProt P14780); assay: MMP9 enzyme inhibition assay (fluorogenic peptide substrate McaPLGLDpaAR); type: biochemical; settings: recombinant human 92 kDa gelatinase, 37° C., 2 hours
[2] = compound s.c. once daily 2, 10, 20 mg/kg for 21 days, compared to vehicle (FIG. 1)

Chain of 92 kDa gelatinase (MMP9) (P14780 107-707 limits assumed): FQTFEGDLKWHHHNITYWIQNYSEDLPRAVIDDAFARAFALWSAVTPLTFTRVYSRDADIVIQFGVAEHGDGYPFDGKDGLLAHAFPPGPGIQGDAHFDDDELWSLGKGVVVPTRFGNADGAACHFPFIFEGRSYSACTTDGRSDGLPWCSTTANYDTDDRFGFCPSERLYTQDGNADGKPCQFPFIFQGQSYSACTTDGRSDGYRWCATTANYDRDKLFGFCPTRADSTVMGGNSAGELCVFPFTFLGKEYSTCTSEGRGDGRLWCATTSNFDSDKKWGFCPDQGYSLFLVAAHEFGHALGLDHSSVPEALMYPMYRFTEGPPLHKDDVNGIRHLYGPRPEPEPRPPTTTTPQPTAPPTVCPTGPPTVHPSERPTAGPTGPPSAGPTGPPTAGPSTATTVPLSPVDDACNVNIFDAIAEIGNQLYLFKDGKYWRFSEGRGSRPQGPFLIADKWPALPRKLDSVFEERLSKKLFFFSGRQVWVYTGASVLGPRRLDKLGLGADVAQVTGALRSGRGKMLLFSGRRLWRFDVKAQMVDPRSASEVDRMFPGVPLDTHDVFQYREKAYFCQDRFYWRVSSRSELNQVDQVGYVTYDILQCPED

## CC(C)C[C@@H](C(=O)N[C@H](c1noc(-c2cccs2)n1)C(C)(C)C)[C@H](O)C(=O)NO [Example 13, 2S-Hydroxy-3R-[1S-(5-thiophen-2-yl-[1,2,4]oxadiazol-3-yl)-2,2-dimethyl-propylcarbamoyl]-5-methyl Hexanohydroxamic Acid]
Collagenase (MMP1)
  IC50: 100 to 1000 nM
[1]; [2]
  Plasma alanine amino transferase (ALAT) level: clearly decreases
  Plasma aspartate amino transferase (ASAT) level: clearly decreases
[1]; compound s.c. once daily, conclusion from ASAT and ALAT levels
  Effect on the liver: protective effect on the liver
92 kDa gelatinase (MMP9)
  IC50: 100 to 1000 nM
